Measurements taken from doi:10.1101/2025.03.14.643351, “Dissection of amino acid acquisition pathways in Borrelia burgdorferi uncovers unique physiological responses” (bioRxiv, 2025).

Biological target: T1, BB0401 (GltPBb) (Borreliella burgdorferi, UniProt O51362)
T1 construct: gene BB_0401; full-length bb0401 ORF, IPTG-inducible from shuttle vector pibb0401 in chromosomal bb0401-deleted B. burgdorferi (bb0401^cond); intact cells; no tag mentioned
Assay: heavy-isotope uptake into conditional mutant with and without IPTG, LC-MS/MS
Format: cell-based
Details: BSK-II medium with unlabelled amino acids, 37 C, 2 h or 6 h uptake after 48 h or 7 d without inducer

T1 sequence (O51362 entry or part of it): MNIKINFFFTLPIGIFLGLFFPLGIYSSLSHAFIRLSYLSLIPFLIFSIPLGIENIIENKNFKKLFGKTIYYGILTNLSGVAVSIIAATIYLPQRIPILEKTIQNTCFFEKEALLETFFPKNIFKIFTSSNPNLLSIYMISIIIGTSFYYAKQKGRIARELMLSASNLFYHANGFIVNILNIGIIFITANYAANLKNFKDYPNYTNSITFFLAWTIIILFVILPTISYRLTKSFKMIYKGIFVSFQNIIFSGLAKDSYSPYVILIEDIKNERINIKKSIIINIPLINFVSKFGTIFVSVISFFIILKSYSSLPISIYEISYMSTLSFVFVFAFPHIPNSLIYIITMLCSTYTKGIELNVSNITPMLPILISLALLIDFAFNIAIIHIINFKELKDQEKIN

Row | SMILES | heavy-isotope uptake into conditional mutant with and without IPTG, LC-MS/MS (labelled compound (13C4,15N1), 30 mg/L) | heavy-isotope uptake into conditional mutant with and without IPTG, LC-MS/MS (labelled compound (13C5,15N1), 86.2 mg/L)
1 | N[C@@H](CC(=O)O)C(=O)O [heavy aspartate (^13C4,^15N1)] | more dramatic reduction in the amount of heavy labeled aspartate and glutamate imported | –
2 | N[C@@H](CCC(=O)O)C(=O)O [heavy glutamate (^13C5,^15N1)] | – | more dramatic reduction in the amount of heavy labeled aspartate and glutamate imported
